Measured values: patent EP3532040B1, “A PERSONAL CARE COMPOSITION” (Unilever Global IP Limited, priority 2016, dated 2018)

Columns and labels:
[1] = Visual assessment of color of the compound compared with curcumin; type: physicochemical; settings: color of the compound itself
From the text: It is desirable that the color of the novel compound of the present invention lies within the colorless to light yellow range for optimum visual appeal and usage in topical and/or skin care compositions. Visual assessment of color from a solid or solution sample of novel compounds in comparison to a solid or solution sample of curcumin provides a means to determine relative reduction of color and appeal potential. In addition, UV-Vis spectra of solution samples of novel compounds in comparison to a solution sample of curcumin provides a means to measure color experimentally and allows a more direct measurement of color. Thus, using these two simple measurements it is possible to assess the relative reduction in color of novel inventive compounds relative to curcumin and allows prioritization of compounds for further development.

[2] = Color assessment of solutions (L*a*b* color space, Labscan XE, and visual appearance); type: physicochemical; settings: 200 µM in ethyl acetate; for b* / L* / a*: 21 °C; for b*: vehicle 1.78; for L*: vehicle 68.79; for a*: vehicle -0.49
Procedure: Solutions of compound with formula 1 and curcumin were prepared in ethyl acetate (200 µM) and the L*a*b* color space measured at room temperature (21 °C) using a Labscan XE instrument (Hunter Associates Labs Inc., Reston, VA) and processed with Universal Software (version 4.10). […]

[3] = system: Primary human gingival fibroblasts; assay: Anti-inflammation efficacy in Human Gingival Fibroblasts assay (P. gingivalis-stimulated IL-6, IL-8, MCP-1 release, ELISA); type: cell-based; settings: 20 µM active preincubated 2 h, then heat-inactivated P. gingivalis 4 h
Procedure: Primary human gingival fibroblasts (HGFs, Cat No. 2620, ScienCell™) were cultured in complete fibroblast medium which included 500 mL of basal medium, 10 mL of fetal bovine serum (FBS), 5 mL of fibroblast growth supplement, and 5 mL of penicillin/streptomycin solution (Cat No. 2301, ScienCell™). HGFs were seeded in 24 well-plates at the density of 2 × 10^4 cells / well and cultured for 72 h. Cells were preincubated with active for 2 h. After removal of the active medium, the cells were washed with PBS and further treated with heat-inactivated P. gingivalis (Cat. 33277, ATCC). After 4 h, the supernatants were collected and measured for IL-6, IL-8 and monocyte chemoattractant protein (MCP) -1 as pro-inflammatory bio-markers using ELISA.

[4] = Solubility in solvents compared with curcumin; type: physicochemical
THP1-XBlue cells = assay: Anti-inflammation efficacy in THP-1 in vitro assay (LPS-stimulated IL-6 release, ELISA); type: cell-based; settings: 24 h, PMA-differentiated cells, LPS alone 10508
Procedure: THP1-XBlue™ (Cat No: thpx-sp, InvivoGen) cells were cultured as suspense in RPMI 1640 medium supplemented with 10% FBS, penicillin (10 U/mL) - streptomycin (10 µg/ML). Cells were differentiated in 24-well plates at the density of 5 × 10^5 cells / well with 100 nM PMA for 72 h. Cells were then co-treated with pure E. coli lipopolysaccharides (LPS) and with active. After 24 h, the supernatants were collected and measured for interleukin (IL)-6 as pro-inflammatory bio-marker using enzyme-linked immunosorbent assay (ELISA).

Row | color [1] | Appearance (visual appearance of solution) [2] | b* [2] | L* [2] | a* [2] | solubility in a broad spectrum of solvents [4] | SMILES | Concentration MCP-1 ([3]; P. gingivalis alone 388) [pg/mL] | Concentration IL-6 ([3]; P. gingivalis alone 595) [pg/mL] | Concentration IL-8 ([3]; P. gingivalis alone 17100) [pg/mL] | Concentration of IL-6 (THP1-XBlue cells; 10 µM active co-treated with E. coli LPS) [pg/mL] | Concentration of IL-6 (THP1-XBlue cells; 20 µM active co-treated with E. coli LPS) [pg/mL]
1 | orange | yellow | 63.88 | 68.53 | -18.66 |  | COc1cc(/C=C/C(=O)CC(=O)/C=C/c2ccc(O)c(OC)c2)ccc1O [Curcumin, reference compound] |  |  |  |  | 
2 | light yellow | colorless | 2.49 | 68.62 | -0.68 | significantly improved solubility | COc1cc(C2CC2C(=O)C(C)(C)C(=O)C2CC2c2ccc(O)c(OC)c2)ccc1O (stereo not shown) [compound of formula 1, 1,3-bis(2-(4-hydroxy-3-methoxyphenyl)cyclopropyl)-2,2-dimethylpropane-1,3-dione] | 232 | 286 | 8321 | 5591 | 2996
